Measured values from ChEMBL document CHEMBL4265882, “Tetrahydroquinoline and tetrahydroisoquinoline derivatives as potential selective PDE4B inhibitors” (Bioorg Med Chem Lett, 2018).

Molecular target: 3',5'-cyclic-AMP phosphodiesterase 4B (Homo sapiens, UniProt Q07343)
Test: Inhibition of human U937 cells-derived PDE4B using [3H]-cAMP as substrate after 30 mins

3',5'-cyclic-AMP phosphodiesterase 4B, sequence (Q07343 whole entry): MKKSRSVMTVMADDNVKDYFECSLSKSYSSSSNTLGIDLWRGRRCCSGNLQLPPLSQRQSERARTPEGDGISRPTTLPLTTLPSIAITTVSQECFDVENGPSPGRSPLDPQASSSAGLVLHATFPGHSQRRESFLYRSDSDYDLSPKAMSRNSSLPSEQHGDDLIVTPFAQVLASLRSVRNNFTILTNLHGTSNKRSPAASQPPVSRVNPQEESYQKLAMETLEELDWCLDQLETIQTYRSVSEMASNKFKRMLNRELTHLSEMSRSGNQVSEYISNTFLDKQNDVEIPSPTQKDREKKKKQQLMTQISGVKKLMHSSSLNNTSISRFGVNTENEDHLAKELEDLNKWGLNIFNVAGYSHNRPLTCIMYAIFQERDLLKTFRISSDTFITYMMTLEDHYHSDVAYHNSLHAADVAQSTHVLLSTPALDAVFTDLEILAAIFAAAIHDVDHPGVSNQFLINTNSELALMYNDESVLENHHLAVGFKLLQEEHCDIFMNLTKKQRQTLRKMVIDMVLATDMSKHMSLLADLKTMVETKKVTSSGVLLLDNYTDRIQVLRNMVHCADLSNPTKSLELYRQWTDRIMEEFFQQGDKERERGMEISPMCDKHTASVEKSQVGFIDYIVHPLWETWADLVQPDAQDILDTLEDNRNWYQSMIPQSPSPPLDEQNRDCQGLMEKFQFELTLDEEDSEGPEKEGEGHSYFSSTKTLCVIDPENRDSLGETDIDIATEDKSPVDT

| SMILES | IC50 |
| --- | --- |
| O=C(c1ccc(-c2ccc(F)cc2)o1)N1CCCc2ccccc21 | 6.1 µM |
| Cc1ccc(-c2ccc(C(=O)N3CCCc4ccccc43)o2)cc1 | 9.4 µM |
| O=C(c1ccc(-c2ccc([N+](=O)[O-])cc2)o1)N1CCCc2ccccc21 | 12.1 µM |
| O=C(c1ccc(-c2ccccc2)o1)N1CCc2ccccc2C1 | 79.6 µM |
| O=C(c1ccc(-c2ccc(F)cc2F)o1)N1CCc2ccccc2C1 | 3 µM |
| O=C(c1ccc(-c2cccc(Cl)c2)o1)N1CCc2ccccc2C1 | 21.1 µM |
| COc1ccc(-c2ccc(C(=O)N3CCCc4ccccc43)o2)cc1 | 1.5 µM |
| O=C(c1ccc(-c2cccc(F)c2)o1)N1CCc2ccccc2C1 | 25.7 µM |
| O=C(c1ccc(-c2cccc(F)c2)o1)N1CCCc2ccccc21 | 22.2 µM |
| O=C(c1ccc(-c2ccccc2[N+](=O)[O-])o1)N1CCc2ccccc2C1 | 66.3 µM |
| Cc1ccc(-c2ccc(C(=O)N3CCc4ccccc4C3)o2)cc1 | 9.4 µM |
| O=C(c1ccc(-c2c(F)cccc2F)o1)N1CCc2ccccc2C1 | 17.1 µM |
| O=C(c1ccc(-c2ccc([N+](=O)[O-])cc2)o1)N1CCc2ccccc2C1 | 15.8 µM |
| O=C(c1ccc(-c2c(F)cccc2F)o1)N1CCCc2ccccc21 | 15.2 µM |
| O=C(c1ccc(-c2ccc(F)cc2)o1)N1CCc2ccccc2C1 | 7.4 µM |
| O=C(c1ccc(-c2ccc(Cl)cc2)o1)N1CCCc2ccccc21 | 3.5 µM |
| O=C(c1ccc(-c2ccc(Cl)cc2)o1)N1CCc2ccccc2C1 | 4.1 µM |
| O=C(c1ccc(-c2ccccc2[N+](=O)[O-])o1)N1CCCc2ccccc21 | 66.9 µM |
| O=C(c1ccc(-c2ccccc2Cl)o1)N1CCc2ccccc2C1 | 51.6 µM |
| O=C(c1ccc(-c2ccc(Br)cc2)o1)N1CCc2ccccc2C1 | 58.4 µM |
| COc1ccc(-c2ccc(C(=O)N3CCc4ccccc4C3)o2)cc1 | 2.6 µM |
| O=C(c1ccc(-c2ccc(Br)cc2)o1)N1CCCc2ccccc21 | 46.8 µM |
| O=C(c1ccc(-c2ccccc2F)o1)N1CCCc2ccccc21 | 50.3 µM |
| O=C(c1ccc(-c2cccc([N+](=O)[O-])c2)o1)N1CCc2ccccc2C1 | 39.9 µM |
| O=C(c1ccc(-c2cccc([N+](=O)[O-])c2)o1)N1CCCc2ccccc21 | 30.9 µM |
| O=C(c1ccc(-c2ccccc2F)o1)N1CCc2ccccc2C1 | 46.1 µM |
| O=C(c1ccc(-c2ccccc2)o1)N1CCCc2ccccc21 | 70.9 µM |
| O=C(c1ccc(-c2ccccc2Cl)o1)N1CCCc2ccccc21 | 41.6 µM |
| O=C(c1ccc(-c2ccc(F)cc2F)o1)N1CCCc2ccccc21 | 2.6 µM |
| O=C(c1ccc(-c2cccc(Cl)c2)o1)N1CCCc2ccccc21 | 18.9 µM |

Molecular target: 3',5'-cyclic-AMP phosphodiesterase 4D (Homo sapiens, UniProt Q08499)
Sequence (Q08499 whole entry): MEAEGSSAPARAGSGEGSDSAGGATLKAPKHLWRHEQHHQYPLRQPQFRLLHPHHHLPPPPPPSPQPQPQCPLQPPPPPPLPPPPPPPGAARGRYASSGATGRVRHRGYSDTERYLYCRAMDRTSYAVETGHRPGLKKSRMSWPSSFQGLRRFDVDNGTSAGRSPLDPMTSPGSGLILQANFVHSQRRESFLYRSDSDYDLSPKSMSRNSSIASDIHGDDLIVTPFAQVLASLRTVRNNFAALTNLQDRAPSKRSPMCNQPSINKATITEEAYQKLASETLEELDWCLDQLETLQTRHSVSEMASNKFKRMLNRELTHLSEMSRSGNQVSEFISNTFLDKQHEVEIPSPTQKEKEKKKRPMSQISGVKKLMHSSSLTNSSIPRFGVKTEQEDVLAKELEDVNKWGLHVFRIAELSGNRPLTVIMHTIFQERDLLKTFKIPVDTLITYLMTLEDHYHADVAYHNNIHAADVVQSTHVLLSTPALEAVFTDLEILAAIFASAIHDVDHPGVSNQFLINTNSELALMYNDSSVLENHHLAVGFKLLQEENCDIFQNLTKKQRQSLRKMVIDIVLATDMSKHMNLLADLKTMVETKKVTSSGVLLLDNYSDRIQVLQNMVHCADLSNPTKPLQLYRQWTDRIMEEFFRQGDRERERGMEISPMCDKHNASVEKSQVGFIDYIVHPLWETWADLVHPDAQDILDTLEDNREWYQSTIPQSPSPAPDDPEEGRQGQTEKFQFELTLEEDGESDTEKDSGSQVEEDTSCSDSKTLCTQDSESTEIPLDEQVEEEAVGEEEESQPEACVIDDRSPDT
Test: Inhibition of human U937 cells-derived PDE4D using [3H]-cAMP as substrate after 30 mins

| SMILES | IC50 |
| --- | --- |
| O=C(c1ccc(-c2ccc(F)cc2)o1)N1CCCc2ccccc21 | 40.3 µM |
| Cc1ccc(-c2ccc(C(=O)N3CCCc4ccccc43)o2)cc1 | 50.1 µM |
| O=C(c1ccc(-c2ccc([N+](=O)[O-])cc2)o1)N1CCCc2ccccc21 | 77.2 µM |
| O=C(c1ccc(-c2ccc(F)cc2F)o1)N1CCc2ccccc2C1 | 18.1 µM |
| COc1ccc(-c2ccc(C(=O)N3CCCc4ccccc43)o2)cc1 | 10.3 µM |
| Cc1ccc(-c2ccc(C(=O)N3CCc4ccccc4C3)o2)cc1 | 56.8 µM |
| O=C(c1ccc(-c2c(F)cccc2F)o1)N1CCc2ccccc2C1 | 89.2 µM |
| O=C(c1ccc(-c2ccc([N+](=O)[O-])cc2)o1)N1CCc2ccccc2C1 | 88.3 µM |
| O=C(c1ccc(-c2c(F)cccc2F)o1)N1CCCc2ccccc21 | 81.3 µM |
| O=C(c1ccc(-c2ccc(F)cc2)o1)N1CCc2ccccc2C1 | 49.3 µM |
| O=C(c1ccc(-c2ccc(Cl)cc2)o1)N1CCCc2ccccc21 | 21.3 µM |
| O=C(c1ccc(-c2ccc(Cl)cc2)o1)N1CCc2ccccc2C1 | 25.2 µM |
| COc1ccc(-c2ccc(C(=O)N3CCc4ccccc4C3)o2)cc1 | 10.2 µM |
| O=C(c1ccc(-c2ccc(F)cc2F)o1)N1CCCc2ccccc21 | 15.6 µM |
| O=C(c1ccc(-c2cccc(Cl)c2)o1)N1CCCc2ccccc21 | 96.8 µM |

Organism: Homo sapiens
Test: Selectivity index, ratio of IC50 for human U937 cells-derived PDE4D to IC50 for human U937 cells-derived PDE4B

| SMILES | Ratio IC50 |
| --- | --- |
| O=C(c1ccc(-c2ccc(F)cc2)o1)N1CCCc2ccccc21 | 6.6 |
| Cc1ccc(-c2ccc(C(=O)N3CCCc4ccccc43)o2)cc1 | 5.33 |
| O=C(c1ccc(-c2ccc([N+](=O)[O-])cc2)o1)N1CCCc2ccccc21 | 6.38 |
| O=C(c1ccc(-c2ccc(F)cc2F)o1)N1CCc2ccccc2C1 | 6.03 |
| COc1ccc(-c2ccc(C(=O)N3CCCc4ccccc43)o2)cc1 | 6.86 |
| Cc1ccc(-c2ccc(C(=O)N3CCc4ccccc4C3)o2)cc1 | 6.04 |
| O=C(c1ccc(-c2c(F)cccc2F)o1)N1CCc2ccccc2C1 | 4.21 |
| O=C(c1ccc(-c2ccc([N+](=O)[O-])cc2)o1)N1CCc2ccccc2C1 | 5.39 |
| O=C(c1ccc(-c2c(F)cccc2F)o1)N1CCCc2ccccc21 | 5.34 |
| O=C(c1ccc(-c2ccc(F)cc2)o1)N1CCc2ccccc2C1 | 6.66 |
| O=C(c1ccc(-c2ccc(Cl)cc2)o1)N1CCCc2ccccc21 | 6.09 |
| O=C(c1ccc(-c2ccc(Cl)cc2)o1)N1CCc2ccccc2C1 | 6.14 |
| COc1ccc(-c2ccc(C(=O)N3CCc4ccccc4C3)o2)cc1 | 3.92 |
| O=C(c1ccc(-c2ccc(F)cc2F)o1)N1CCCc2ccccc21 | 6 |
| O=C(c1ccc(-c2cccc(Cl)c2)o1)N1CCCc2ccccc21 | 5.12 |

System: not listed separately
Test: Inhibition of PDE4 in human PBMC assessed as reduction in LPS-stimulated TNFalpha release preincubated for 30 mins followed by LPS stimulation for 18 hrs by TR-FRET assay
Format: cell-based

| SMILES | IC50 |
| --- | --- |
| O=C(c1ccc(-c2ccc(F)cc2)o1)N1CCCc2ccccc21 | 22.1 µM |
| Cc1ccc(-c2ccc(C(=O)N3CCCc4ccccc43)o2)cc1 | 35.2 µM |
| O=C(c1ccc(-c2ccc([N+](=O)[O-])cc2)o1)N1CCCc2ccccc21 | 46.8 µM |
| O=C(c1ccc(-c2ccccc2)o1)N1CCc2ccccc2C1 | 188 µM |
| O=C(c1ccc(-c2ccc(F)cc2F)o1)N1CCc2ccccc2C1 | 17.1 µM |
| O=C(c1ccc(-c2cccc(Cl)c2)o1)N1CCc2ccccc2C1 | 57.1 µM |
| COc1ccc(-c2ccc(C(=O)N3CCCc4ccccc43)o2)cc1 | 11.8 µM |
| O=C(c1ccc(-c2cccc(F)c2)o1)N1CCc2ccccc2C1 | 78.1 µM |
| O=C(c1ccc(-c2cccc(F)c2)o1)N1CCCc2ccccc21 | 64.3 µM |
| O=C(c1ccc(-c2ccccc2[N+](=O)[O-])o1)N1CCc2ccccc2C1 | 151 µM |
| Cc1ccc(-c2ccc(C(=O)N3CCc4ccccc4C3)o2)cc1 | 44.1 µM |
| O=C(c1ccc(-c2c(F)cccc2F)o1)N1CCc2ccccc2C1 | 91.9 µM |
| O=C(c1ccc(-c2ccc([N+](=O)[O-])cc2)o1)N1CCc2ccccc2C1 | 46.3 µM |
| O=C(c1ccc(-c2c(F)cccc2F)o1)N1CCCc2ccccc21 | 89.3 µM |
| O=C(c1ccc(-c2ccc(F)cc2)o1)N1CCc2ccccc2C1 | 27.2 µM |
| O=C(c1ccc(-c2ccc(Cl)cc2)o1)N1CCCc2ccccc21 | 27.2 µM |

| SMILES | IC50 |
| --- | --- |
| O=C(c1ccc(-c2ccc(Cl)cc2)o1)N1CCc2ccccc2C1 | 28.6 µM |
| COc1ccc(C2CNC(=O)C2)cc1OC1CCCC1 (stereo unspecified) [ROLIPRAM] | 18.9 µM |
| O=C(c1ccc(-c2ccccc2[N+](=O)[O-])o1)N1CCCc2ccccc21 | 128 µM |
| O=C(c1ccc(-c2ccccc2Cl)o1)N1CCc2ccccc2C1 | 121 µM |
| O=C(c1ccc(-c2ccc(Br)cc2)o1)N1CCc2ccccc2C1 | 156 µM |
| COc1ccc(-c2ccc(C(=O)N3CCc4ccccc4C3)o2)cc1 | 13.6 µM |
| O=C(c1ccc(-c2ccc(Br)cc2)o1)N1CCCc2ccccc21 | 131 µM |
| O=C(c1ccc(-c2ccccc2F)o1)N1CCCc2ccccc21 | 92.8 µM |
| O=C(c1ccc(-c2cccc([N+](=O)[O-])c2)o1)N1CCc2ccccc2C1 | 72.5 µM |
| O=C(c1ccc(-c2cccc([N+](=O)[O-])c2)o1)N1CCCc2ccccc21 | 62.3 µM |
| O=C(c1ccc(-c2ccccc2F)o1)N1CCc2ccccc2C1 | 95.4 µM |
| O=C(c1ccc(-c2ccccc2)o1)N1CCCc2ccccc21 | 142 µM |
| O=C(c1ccc(-c2ccccc2Cl)o1)N1CCCc2ccccc21 | 101 µM |
| O=C(c1ccc(-c2ccc(F)cc2F)o1)N1CCCc2ccccc21 | 16.2 µM |
| O=C(c1ccc(-c2cccc(Cl)c2)o1)N1CCCc2ccccc21 | 62.5 µM |

System: Mus musculus
Test: Anti-inflammatory activity in Swiss albino mouse model of sepsis assessed as inhibition of LPS-induced TNFalpha release at 10 mg/kg, po administered 30 mins prior to LPS challenge for 90 mins by ELISA relative to control
Format: functional

| SMILES | inhibition in vivo at 10 mg/kg |
| --- | --- |
| O=C(c1ccc(-c2ccc(F)cc2F)o1)N1CCc2ccccc2C1 | 30.8% |
| COc1ccc(-c2ccc(C(=O)N3CCCc4ccccc43)o2)cc1 | 46.8% |
| COc1ccc(C2CNC(=O)C2)cc1OC1CCCC1 (stereo unspecified) [ROLIPRAM] | 42.9% |
| COc1ccc(-c2ccc(C(=O)N3CCc4ccccc4C3)o2)cc1 | 39.2% |
| O=C(c1ccc(-c2ccc(F)cc2F)o1)N1CCCc2ccccc21 | 39.6% |

System: Rattus norvegicus
Test: Anti-inflammatory activity in Sprague-Dawley rat model of LPS-induced asthma/COPD assessed as inhibition of neutrophilia in BALF at 10 mg/kg, po administered 30 mins prior to LPS challenge for 40 mins and measured after 6 hrs relative to control
Format: functional

| SMILES | inhibition in vivo at 10 mg/kg |
| --- | --- |
| O=C(c1ccc(-c2ccc(F)cc2F)o1)N1CCc2ccccc2C1 | 29.5% |
| COc1ccc(-c2ccc(C(=O)N3CCCc4ccccc43)o2)cc1 | 40.1% |
| COc1ccc(C2CNC(=O)C2)cc1OC1CCCC1 (stereo unspecified) [ROLIPRAM] | 34.2% |
| COc1ccc(-c2ccc(C(=O)N3CCc4ccccc4C3)o2)cc1 | 32.7% |
| O=C(c1ccc(-c2ccc(F)cc2F)o1)N1CCCc2ccccc21 | 34.1% |
